From patent US11028095B2, “Spiro-lactam and bis-spiro-lactam NMDA receptor modulators and uses thereof” (Aptinyx Inc., priority 2016, dated 2021)

What was measured:
[1] = system: positive (hedonic) 50-kHz ultrasonic vocalizations (USVs); assay: Positive Emotional Learning (PEL) test; assay type: in vivo; details: rat, PO, dose 0.001-1 mg/kg, one hour after administration
In short: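 Rats received test compound or vehicle (0.5% carboxymethyl cellulose in saline) 1 h before 3 min of experimenter-delivered rough-and-tumble play in alternating 15 s play and no-stimulation blocks. Frequency-modulated 50-kHz USVs during no-stimulation (CS) periods were counted; animals not habituated beforehand.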

[2] = Microsomal stability (Rat); assay type: in vitro ADME; details: rat microsomes
Experimental: Microsomal stability of disclosed compounds was investigated. The following table indicates the percent of compound remaining after 60 minutes.

[3] = target: T1, NMDAR2A expressing HEK cell membranes (Homo sapiens, UniProt Q05586+Q12879); assay: NMDAR agonist assay, [3H]MK-801 binding, NMDAR2A; assay type: biochemical
T1 construct: expressed in transfected cells; host or cells: HEK cells (membrane extract)
Experimental: (§1) (nonequilibrium conditions).
(§2) The baseline value was determined from the best fit curve of the DPM values modeled using the GraphPad program and the log(agonist) vs. response(three parameters) algorithm was then subtracted from all points in the dataset.

[4] = target: T2, NMDAR2B expressing HEK cell membranes (Homo sapiens, UniProt Q05586+Q13224); assay: NMDAR agonist assay, [3H]MK-801 binding, NMDAR2B; assay type: biochemical
T2 construct: expressed in transfected cells; host or cells: HEK cells (membrane extract)
Experimental: as §1, §2

T2 sequence (Q13224 27-1484, other chains not shown): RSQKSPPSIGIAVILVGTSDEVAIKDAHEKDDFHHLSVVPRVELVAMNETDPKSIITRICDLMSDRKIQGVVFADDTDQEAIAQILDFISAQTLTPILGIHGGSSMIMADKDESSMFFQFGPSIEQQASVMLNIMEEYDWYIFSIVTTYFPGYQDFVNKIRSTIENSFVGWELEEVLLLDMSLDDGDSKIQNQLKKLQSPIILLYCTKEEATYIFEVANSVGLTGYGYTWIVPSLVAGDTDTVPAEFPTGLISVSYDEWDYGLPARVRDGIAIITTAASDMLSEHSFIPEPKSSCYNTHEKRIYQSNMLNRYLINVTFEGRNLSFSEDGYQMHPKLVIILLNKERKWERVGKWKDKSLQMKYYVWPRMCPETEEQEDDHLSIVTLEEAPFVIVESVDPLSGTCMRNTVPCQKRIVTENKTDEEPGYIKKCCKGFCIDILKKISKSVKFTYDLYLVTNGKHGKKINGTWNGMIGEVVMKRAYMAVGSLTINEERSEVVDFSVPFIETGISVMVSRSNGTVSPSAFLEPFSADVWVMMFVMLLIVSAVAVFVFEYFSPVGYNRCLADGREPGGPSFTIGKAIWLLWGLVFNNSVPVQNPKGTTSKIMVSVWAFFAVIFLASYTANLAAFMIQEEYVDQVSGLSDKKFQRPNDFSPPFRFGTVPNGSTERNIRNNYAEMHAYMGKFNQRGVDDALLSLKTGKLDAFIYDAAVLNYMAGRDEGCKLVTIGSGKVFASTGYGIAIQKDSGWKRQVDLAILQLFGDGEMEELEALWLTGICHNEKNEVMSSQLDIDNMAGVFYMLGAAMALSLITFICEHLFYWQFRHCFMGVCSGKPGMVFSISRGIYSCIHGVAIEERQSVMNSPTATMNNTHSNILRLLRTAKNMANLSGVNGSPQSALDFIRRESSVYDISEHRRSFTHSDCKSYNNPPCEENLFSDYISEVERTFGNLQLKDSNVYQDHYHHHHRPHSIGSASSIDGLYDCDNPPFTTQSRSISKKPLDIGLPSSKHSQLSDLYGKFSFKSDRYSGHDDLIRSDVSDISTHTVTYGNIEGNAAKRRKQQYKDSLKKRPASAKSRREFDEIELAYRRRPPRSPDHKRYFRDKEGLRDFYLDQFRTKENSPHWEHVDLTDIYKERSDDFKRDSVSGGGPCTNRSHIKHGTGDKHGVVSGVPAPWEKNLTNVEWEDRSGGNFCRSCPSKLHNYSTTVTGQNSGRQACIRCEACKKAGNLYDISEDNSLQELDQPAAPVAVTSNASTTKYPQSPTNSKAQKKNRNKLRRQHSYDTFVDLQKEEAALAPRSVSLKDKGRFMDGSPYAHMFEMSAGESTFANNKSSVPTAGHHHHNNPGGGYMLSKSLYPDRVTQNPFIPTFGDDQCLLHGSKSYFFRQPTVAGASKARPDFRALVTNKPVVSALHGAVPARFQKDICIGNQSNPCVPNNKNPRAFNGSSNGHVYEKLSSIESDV
T1 sequence (Q12879 23-1464, other chains not shown): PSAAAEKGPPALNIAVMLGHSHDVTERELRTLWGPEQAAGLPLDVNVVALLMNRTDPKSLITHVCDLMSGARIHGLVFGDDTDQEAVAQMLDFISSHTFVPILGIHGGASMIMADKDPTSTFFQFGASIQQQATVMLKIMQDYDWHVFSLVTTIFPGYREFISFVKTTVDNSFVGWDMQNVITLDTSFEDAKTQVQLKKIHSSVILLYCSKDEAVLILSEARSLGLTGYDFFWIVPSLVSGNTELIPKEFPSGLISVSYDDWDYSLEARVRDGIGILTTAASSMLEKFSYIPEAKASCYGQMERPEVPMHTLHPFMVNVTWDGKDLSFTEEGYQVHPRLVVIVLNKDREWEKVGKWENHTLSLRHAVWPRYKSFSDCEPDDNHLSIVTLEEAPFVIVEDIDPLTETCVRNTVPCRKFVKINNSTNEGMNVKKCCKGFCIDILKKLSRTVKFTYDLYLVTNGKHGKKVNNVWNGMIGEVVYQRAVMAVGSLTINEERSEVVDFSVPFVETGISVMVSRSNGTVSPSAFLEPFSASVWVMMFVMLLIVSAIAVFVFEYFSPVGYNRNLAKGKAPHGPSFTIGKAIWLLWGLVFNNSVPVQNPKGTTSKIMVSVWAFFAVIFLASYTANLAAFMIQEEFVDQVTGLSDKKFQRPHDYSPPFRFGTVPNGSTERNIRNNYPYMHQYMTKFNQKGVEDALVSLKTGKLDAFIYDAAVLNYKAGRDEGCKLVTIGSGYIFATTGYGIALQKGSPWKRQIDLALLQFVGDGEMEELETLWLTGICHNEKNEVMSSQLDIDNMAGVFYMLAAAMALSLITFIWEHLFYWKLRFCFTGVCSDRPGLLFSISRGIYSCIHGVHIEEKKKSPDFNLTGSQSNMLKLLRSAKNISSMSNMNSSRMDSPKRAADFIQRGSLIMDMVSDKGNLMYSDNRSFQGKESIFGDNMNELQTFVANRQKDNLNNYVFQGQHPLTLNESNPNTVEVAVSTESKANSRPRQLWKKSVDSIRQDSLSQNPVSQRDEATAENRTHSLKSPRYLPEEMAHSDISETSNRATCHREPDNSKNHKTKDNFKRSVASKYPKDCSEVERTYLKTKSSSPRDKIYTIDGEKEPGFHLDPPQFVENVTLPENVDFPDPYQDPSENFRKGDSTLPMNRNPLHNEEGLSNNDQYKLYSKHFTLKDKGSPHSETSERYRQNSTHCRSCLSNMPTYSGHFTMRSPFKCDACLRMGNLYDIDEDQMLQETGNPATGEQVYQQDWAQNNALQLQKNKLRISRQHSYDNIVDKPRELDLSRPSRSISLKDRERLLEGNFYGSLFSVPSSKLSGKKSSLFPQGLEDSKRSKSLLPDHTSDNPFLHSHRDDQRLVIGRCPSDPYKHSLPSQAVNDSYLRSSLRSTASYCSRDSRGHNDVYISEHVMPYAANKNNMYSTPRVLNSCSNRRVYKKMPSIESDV

## CC(C)CN1[C@@]2(CC[C@@]13CNC3=O)CNC2=O [Compound AD, 5-isobutyl-2,5,8-triazadispiro[3.1.36.24]undecane-1,7-dione]
[1]
  Max Effect (mean number of 50 kHz USVs per 15 seconds): ** (**: 11-16.9)
[2]
  Microsomal (Rat): percent of compound remaining after 60 minutes: 100%
[3]; NMDAR2A: log EC50, 50 μM glutamate, [3H]MK-801 binding
  EC50: < 1 nM
[3]; read-out: NMDAR2A: % maximal [3H]MK-801 binding relative to 1 mM glycine, 50 μM glutamate, relative to 1 mM glycine
  Emax: < 100%
[4]; NMDAR2B: log EC50, 50 μM glutamate, [3H]MK-801 binding
  EC50: < 1 nM
[4]; read-out: NMDAR2B: % maximal [3H]MK-801 binding relative to 1 mM glycine, 50 μM glutamate, relative to 1 mM glycine
  Emax: < 100%
